Test results published in patent US8663669B2, “Pesticide treatment of soils or substrates with sulphur compounds” (Arkema France, priority 2002, dated 2014).

How the values were obtained:
[1] = test system: lettuce (variety Sprintia); assay: Phytotoxicity on lettuce, in a greenhouse; assay type: in vivo; details: 150 kg/ha (formulation A)
Text: Absence of phytotoxicity on lettuce of DMDS, applied at 150 kg/ha, in the open, in a greenhouse.
Lettuce variety: Sprintia
Treatment: DMDS is applied in the form of formulation A with the aid of a jet sprayer, and then incorporated over a depth of about 5 cm with a rotary hoe. The soil is then covered with a black polyethylene film.
Planting: 7 days after the treatment, at the rate of 160 000 plants/ha
Harvesting: 2 months and 20 days after planting.

soil microorganisms = assay: Effect on soil microorganisms (oxygen consumed); details: 150 kg/ha (formulation A)
Experimental: The effect of DMDS, applied at 150 kg/ha in the form of formulation A, to soil microorganisms was evaluated according to the following standard methods: • “Recommended tests for assessing the side-effects of pesticides on the soil micro flora”, Technical Report Agricultural Research Council Weed Research Organization, 1980 (59). • “OECD Guideline for Testing of Chemicals—Soil Microorganisms: Carbon Mineralization Test”, Draft document, June 1996.
The effect of DMDS on soil microorganisms is measured by the reduction in the oxygen consumed by these microorganisms, expressed in mg O2 per kg of dry soil per h, 14, 28, 42, 57 days after the treatment (Table 14).

Compound: CSSC [DMDS, dimethyl disulphide]
- Visual observations on the field: sign of phytotoxicity ([1]; 1 and 2 months after planting): no sign of phytotoxicity
- Average weight of the lettuce at harvest ([1]; harvest 2 months and 20 days after planting, control 490 g): 505 g
- Oxygen consumed by soil microorganisms (soil microorganisms; Day 0, untreated control 11.23): 9.70 mg O2 per kg of dry soil per h
- Oxygen consumed by soil microorganisms (soil microorganisms; Day 14, untreated control 10.18): 8.74 mg O2 per kg of dry soil per h
- Oxygen consumed by soil microorganisms (soil microorganisms; Day 28, untreated control 7.87): 6.62 mg O2 per kg of dry soil per h
- Oxygen consumed by soil microorganisms (soil microorganisms; Day 42, untreated control 9.12): 8.93 mg O2 per kg of dry soil per h
- Oxygen consumed by soil microorganisms (soil microorganisms; Day 57, untreated control 7.30): 4.90 mg O2 per kg of dry soil per h
